Laboratory results reported in US20250092065A1, “2-(INDAZOL-5-YL)-6-(PIPERIDIN-4-YL)-1,7-NAPHTHYRIDINE DERIVATIVES AND RELATED COMPOUNDS AS MODULATORS FOR SPLICING NUCLEIC ACIDS AND FOR THE TREATMENT OF PROLIFERATIVE DISEASES” (REMIX THERAPEUTICS INC., priority 2022, published 2025).
Where a name gives a salt, the structure may show the parent alone. Read-outs that look alike come from different tables or passages of the source.

Assays:
HTT mRNA = assay: RT-qPCR splicing assay, HTT mRNA canonical (CJ) and alternative (AJ) junction; assay type: cell-based, human; settings: Homo sapiens; for AC50: HTT alternative junction mRNA, read-out: HTT AJ (increase in AJ mRNA, AC50)
In short: (§1)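 Canonical and alternative-exon junction isoforms were quantified by RT-qPCR in cell lysates, with ΔCt against a housekeeper (GAPDH/GUSB/PPIA), then ΔΔCt vs DMSO, converted to 2^(−ΔΔCt) and percent response. K562 or A673 cells were exposed for 24 h to 11 concentrations (3-fold, top final 10 uM).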

SMN2 mRNA = assay: RT-qPCR splicing assay, SMN2 mRNA; assay type: cell-based, human; settings: Homo sapiens, canonical junction qPCR panel, Table 4; read-out: SMN2 IC50 (decrease in CJ mRNA levels)
In short: as §1

MYB = assay: HiBiT protein abundance assay, MYB (K562 HiBiT knock-in); assay type: cell-based, human; settings: HiBiT knock-in K562 cells, 24 hours, top dose 10 μM
In short: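 K562 HiBiT knock-in, 24 h, 37 °C, top 10 μM final, 3-fold ×10, DMSO ≤0.25%. Lytic HiBiT luminescence; PC = parental K562, NC = DMSO; 4PL IC50.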

K562 cells = assay: Cell Titer Glo 2.0 cell viability (toxicity) assay, K562; settings: 500 cells/well, 72 hours
[1] = HTT canonical junction mRNA, RT-qPCR, read-out: HTT CJ (decrease in CJ mRNA levels, IC50)
[2] = canonical junction qPCR panel, Table 4, read-out: HTT IC50 (decrease in CJ mRNA levels)

CNC(=O)c1nc(-c2cc3cn(C)nc3c(C)c2O)nc2ccc(N3CCNCC3)nc12 [Compound 533, 2-(6-hydroxy-2,7-dimethylindazol-5-yl)-N-methyl-6-(piperazin-1-yl)pyrido[3,2-d]pyrimidine-4-carboxamide]
AC50 (HTT mRNA; RT-qPCR): 1000 to 10000 nM | IC50 (HTT mRNA; [1]): 1000 to 10000 nM | IC50 (HTT mRNA; [2]): 1000 to 10000 nM | IC50 (SMN2 mRNA): < 100 nM | IC50 (MYB): 100 to 1000 nM | Effect of Exemplary Compounds on Cell Viability, K562 (K562 cells): B (B represents 100-1000 nM)

CNC(=O)c1nc(-c2cc3cn(C)nc3c(C)c2O)nc2ccc(N3C[C@@H](C)N[C@@H](C)C3)nc12 [Compound 534, 6-[(3R,5S)-3,5-dimethylpiperazin-1-yl]-2-(6-hydroxy-2,7-dimethylindazol-5-yl)-N-methylpyrido[3,2-d]pyrimidine-4-carboxamide]
AC50 (HTT mRNA; RT-qPCR): > 10000 nM | IC50 (HTT mRNA; [1]): > 10000 nM | IC50 (HTT mRNA; [2]): > 10000 nM | IC50 (SMN2 mRNA): < 100 nM | IC50 (MYB): 100 to 1000 nM | Effect of Exemplary Compounds on Cell Viability, K562 (K562 cells): B (B represents 100-1000 nM)

CCNC(=O)c1nc(-c2cc3cn(C)nc3c(C)c2O)nc2ccc(N3C[C@@H](C)N[C@@H](C)C3)cc12 [Compound 535, 6-[(3R,5S)-3,5-dimethylpiperazin-1-yl]-N-ethyl-2-(6-hydroxy-2,7-dimethylindazol-5-yl)quinazoline-4-carboxamide]
AC50 (HTT mRNA; RT-qPCR): 100 to 1000 nM | IC50 (HTT mRNA; [1]): < 100 nM | IC50 (HTT mRNA; [2]): < 100 nM | IC50 (SMN2 mRNA): < 100 nM | IC50 (MYB): < 100 nM | Effect of Exemplary Compounds on Cell Viability, K562 (K562 cells): A (A represents <100 nM)

CNC(=O)c1nc(-c2cc3cn(C)nc3c(C)c2O)nc2ccc(N3CC[C@@H](NC)C3)cc12 [Compound 536, 2-(6-hydroxy-2,7-dimethylindazol-5-yl)-N-methyl-6-[(3R)-3-(methylamino)pyrrolidin-1-yl]quinazoline-4-carboxamide]
AC50 (HTT mRNA; RT-qPCR): < 100 nM | IC50 (HTT mRNA; [1]): < 100 nM | IC50 (HTT mRNA; [2]): < 100 nM | IC50 (SMN2 mRNA): < 100 nM | IC50 (MYB): < 100 nM | Effect of Exemplary Compounds on Cell Viability, K562 (K562 cells): A (A represents <100 nM)

CNC(=O)c1nc(-c2cc3cn(C)nc3c(C)c2O)nc2ccc(N3CC[C@H](NC)C3)cc12 [Compound 537, 2-(6-hydroxy-2,7-dimethylindazol-5-yl)-N-methyl-6-[(3S)-3-(methylamino)pyrrolidin-1-yl]quinazoline-4-carboxamide]
AC50 (HTT mRNA; RT-qPCR): 100 to 1000 nM | IC50 (HTT mRNA; [1]): < 100 nM | IC50 (HTT mRNA; [2]): < 100 nM | IC50 (SMN2 mRNA): < 100 nM | IC50 (MYB): < 100 nM | Effect of Exemplary Compounds on Cell Viability, K562 (K562 cells): A (A represents <100 nM)

Cc1c(O)c(-c2nc(-c3c[nH]nn3)c3cc(N4CCNCC4)ccc3n2)cc2cn(C)nc12 [Compound 538, 2,7-dimethyl-5-[6-(piperazin-1-yl)-4-(1H-1,2,3-triazol-4-yl)quinazolin-2-yl]indazol-6-ol hydrochloride]
AC50 (HTT mRNA; RT-qPCR): 1000 to 10000 nM | IC50 (HTT mRNA; [1]): 1000 to 10000 nM | IC50 (HTT mRNA; [2]): 1000 to 10000 nM | IC50 (SMN2 mRNA): 100 to 1000 nM | IC50 (MYB): 1000 to 10000 nM | Effect of Exemplary Compounds on Cell Viability, K562 (K562 cells): C (C represents 1000-9999 nM)

Cc1c(O)c(-c2nc(C(=O)NC(C)C)c3cc(N4C[C@@H](C)N[C@@H](C)C4)ccc3n2)cc2cn(C)nc12 [Compound 539, 6-[(3R,5S)-3,5-dimethylpiperazin-1-yl]-2-(6-hydroxy-2,7-dimethylindazol-5-yl)-N-isopropylquinazoline-4-carboxamide]
AC50 (HTT mRNA; RT-qPCR): < 100 nM | IC50 (HTT mRNA; [1]): < 100 nM | IC50 (HTT mRNA; [2]): < 100 nM | IC50 (SMN2 mRNA): < 100 nM | IC50 (MYB): < 100 nM | Effect of Exemplary Compounds on Cell Viability, K562 (K562 cells): A (A represents <100 nM)

Cc1c(O)c(-c2nc(C(=O)NC3CCC3)c3cc(N4C[C@@H](C)N[C@@H](C)C4)ccc3n2)cc2cn(C)nc12 [Compound 540]
AC50 (HTT mRNA; RT-qPCR): 100 to 1000 nM | IC50 (HTT mRNA; [1]): 1000 to 10000 nM | IC50 (HTT mRNA; [2]): 1000 to 10000 nM | IC50 (SMN2 mRNA): < 100 nM | IC50 (MYB): < 100 nM | Effect of Exemplary Compounds on Cell Viability, K562 (K562 cells): A (A represents <100 nM)

Cc1c(O)c(-c2nc(-c3nn[nH]n3)c3cc(N4CCNCC4)ccc3n2)cc2cn(C)nc12 [Compound 541, 2,7-dimethyl-5-[6-(piperazin-1-yl)-4-(2H-1,2,3,4-tetrazol-5-yl)quinazolin-2-yl]indazol-6-ol]
AC50 (HTT mRNA; RT-qPCR): 1000 to 10000 nM | IC50 (HTT mRNA; [1]): 1000 to 10000 nM | IC50 (HTT mRNA; [2]): 1000 to 10000 nM | IC50 (SMN2 mRNA): 1000 to 10000 nM | IC50 (MYB): > 10000 nM | Effect of Exemplary Compounds on Cell Viability, K562 (K562 cells): C (C represents 1000-9999 nM)
